According to US7109341B2, “Therapeutic amides” (Wayne State University, priority 2002, dated 2006):
Values joined by “and” are separate entries in the source; they are usually repeats but may differ in a detail not shown here. Equal values may be shown once. “Also recorded” adds a separate entry of the source. Read-outs that look alike come from different tables or passages of the source.

What was measured:
[1] = tested on: Pancreatic Ductal Adenocarcinoma 03;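 note: mice carrying bilateral subcutaneous tumors, with tumor weight estimated from two-dimensional caliper readings taken twice a week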
Source text: (§1) Pancreatic ductal adenocarcinoma-03, mammary adenocarcinoma-16/C, mammary adenocarcinoma-17/Adr, and human melanoma LOX were used in the studies. Tumors were maintained in the mouse strain of origin (C57B1/6 for Panc-03 and C3H for the mammary tumors). Balb/c SCID mice (B and T cell deficient) were used for tumor maintenance and chemotherapy trials involving the human melanoma LOX. Tumors were transplanted into the appropriate F1 hybrid (B6D2F1=C57B 1/6 female× DBA/2 male) or the strain of origin for the chemotherapy trials. Individual mouse body weights for each experiment were within 5 grams, and all mice were over 17 grams at the start of therapy. The mice were supplied food and water ad libitum.
(§2) Animals were pooled, implanted subcutaneously with 30 to 60 mg tumor fragments by a 12 gauge trocar on day 0, and again pooled before unselective distribution to the various treatment and control groups. For early stage treatment, chemotherapy was started within 1 to 3 days after tumor implantation while the number of cells was relatively small (10^7 to 10^8 cells). For upstaged or advanced staged trials, the tumors were allowed to grow for five or more days before treatment was started. Tumors were measured with a caliper twice weekly. […] Tumor weights are estimated from two-dimensional measurements:
(§3) Tumor weight (in mg)=(a×b^2)/2, where a and b are the tumor length and width in (mm), respectively.
a) Tumor growth delay (T−C value), where T is the median time (in days) required for the treatment group tumors to reach a predetermined size (e.g., 1,000 mg), and C is the median time (in days) for the control group tumors to reach the same size. Tumor-free survivors were are excluded from these calculations (cures are tabulated separately). This value is an important criterion of anti-tumor effectiveness because it allows the quantification of tumor cell kill.
(§4) b) Calculation of tumor cell kill for subcutaneously (SC) growing tumors. […] The conversion of the T−C values to log10 cell kill is possible because the Td of tumors re-growing post treatment (Rx) approximates the Td values of the tumors in untreated control mice.
(§5) It should be noted that an activity rating of +++ to ++++ is needed to effect partial regression (PR) or complete regression (CR) of 100 to 300 mg size masses of most transplanted solid tumors of mice. Thus, an activity rating of + or ++ would not be scored as active by usual clinical criteria. A PR is a reduction in tumor mass to less than 50% of pretreatment size. A CR is a reduction in tumor mass to below palpable size (i.e., reduction to zero detectable mass).
(§6) The T/C value in percent is an indication of anti-tumor effectiveness: A T/C=0% means no tumor growth. A T/C=100% means no anti-tumor activity, i.e., the treated and control tumors grew equally. […] A T/C value<10% is considered to indicate highly significant anti-tumor activity, and is the level used by NCI to justify a clinical trial if toxicity, formulation, and certain other requirements are met (termed DN-2 level activity).
(§7) Compounds as their sodium salts were prepared in a 1% sodium bicarbonate solution, H2O or phosphate buffered saline (PBS), with pH adjusted to 7.0 to 7.5 with HCl, and administered intravenously (IV) or orally (PO), at injection volumes of 0.2 mL per injection.
Thus, for this test, all compounds initially were to be given IP, in an attempt to identify a suitable alternate route of administration.

[2] = Water solubility noted on drug preparation for injection; assay type: physicochemical; details: for Preparation: state of the injection preparation: white solid + 3% EtOH + 1% POE + 0.25% NaHCO3 + saline, pH = 8.0
Procedure: as §7

[3] = tested on: Pancreatic Ductal Adenocarcinoma #03; experiment: Evaluation against early stage Pancreatic Ductal Adenocarcinoma #03, BD1 female mice (Table 2); details: PO
Human Melanoma LOX = details: Cage 2; IV; qd 1–6, BID 7; total 700 mg/kg
[4] = tested on: Mammary Adenocarcinoma 16/C; details: IV
Source text: as §1, §2, §3
a) Tumor growth delay (T−C value), where T is the median time (in days) required for the treatment group tumors to reach a predetermined size (e.g., 1,000 mg), and C is the median time (in days) for the control group tumors to reach the same size. Tumor-free survivors were are excluded from these calculations (cures are tabulated separately).
as §4, §5, §6, §7

[5] = Cage 8, 135 mg/kg IP day 3, then SC days 5, 7, 11, 13, 15, total 615 mg/kg
[6] = Cage 9, IP, 80 mg/kg/inj days 3, 5, 7, 11, 13, 15, total 480 mg/kg
[7] = Cage 10, IP, 50 mg/kg/inj Q2d×7 from day 3, total 350 mg/kg
[8] = IP d 3 then SC d5, 7, 11, 13, 15, total dosage 615 mg/kg, BDF1 males
[9] = IP, Q2d: 3–15, total dosage 350 mg/kg, BDF1 males
[10] = IP, d3, 5, 7, 11, 13, 15, total dosage 480 mg/kg, BDF1 males
[11] = Cage 3, BID3–7, total 2,300 mg/kg
[12] = Cage 4, BID 3, 4, total 480 mg/kg
[13] = Cage 2, IP, 135 mg/kg day 3 only
[14] = Cage 3, IP, 80 mg/kg day 3 only
[15] = Cage 4, 50 mg/kg IP day 3, then IV Q2d×7 through day 15, total 455 mg/kg
[16] = IP d3 then IV Q2d: 5–15, total dosage 455 mg/kg, BDF1 males
[17] = IP, d 3, total dosage 80 mg/kg, BDF1 males
[18] = IP, d 3, total dosage 135 mg/kg, BDF1 males
[19] = Cage 4, d1, 3–5, 7, 9, 11, 13, 15, total 1610 mg/kg
[20] = Cage 5, d1, 3–7, 9, total 665 mg/kg

CC(Oc1ccc(Oc2ccc3ccc(Br)cc3n2)cc1)C(=O)NCC(=O)O [Compound 14h (R), {2-[4-(7-Bromo-quinolin-2-yloxy)-phenoxy]-propionylamino}acetic acid]
Activity Rating [1, 5]: ++ (1.3–1.9) | T/C [1, 5]: 3% | log cell kill [1, 5]: 1.9 | T/C [1, 6]: 6% | log cell kill [1, 6]: 1.7 | Activity Rating [1, 7]: + (0.7–1.2) | T/C [1, 7]: 16.5% | log kill [1, 7]: 1.0 | Comments (Active/Inactive) [1, 8]: Inactive | Comments (activity rating) [1, 8]: (++) (1.3–1.9) | Drug Death [1, 8]: 0/5 | Log Cell Kill [1, 8]: 1.9 | Median Tumor Burden in mg on d17 [1, 8]: 63 mg | T-C [1, 8]: 13 days | T/C % [1, 8]: 3% | Time to 1000 mg [1, 8]: 28 days | Tumor Free on 148 [1, 8]: 0/5 | Comments (Active/Inactive) [1, 9]: Active | Comments (activity rating) [1, 9]: (+) (0.7–1.2) | Drug Death [1, 9]: 0/5 | Log Cell Kill [1, 9]: 1.0 | Median Tumor Burden in mg on d17 [1, 9]: 304 mg | T-C [1, 9]: 7 days | T/C % [1, 9]: 16.5% | Time to 1000 mg [1, 9]: 22 days | Tumor Free on 148 [1, 9]: 0/5 | Comments (Active/Inactive) [1, 10]: Active | Comments (activity rating) [1, 10]: (++) (1.3–1.9) | Drug Death [1, 10]: 0/5 | Log Cell Kill [1, 10]: 1.7 | Median Tumor Burden in mg on d17 [1, 10]: 108 mg | T-C [1, 10]: 12 days | T/C % [1, 10]: 6% | Time to 1000 mg [1, 10]: 27 days | Tumor Free on 148 [1, 10]: 0/5 | Day of Wt. Loss Nadir ([1]; mouse, in vivo): 9 days and 10 days and 8 days | day of full weight recovery ([1]; mouse, in vivo): 20 days and 15 days | day of weight loss nadir ([1]; mouse, in vivo): 9 days and 10 days and 8 days | weight loss nadir ([1]; mouse, in vivo): −13.3% | water solubility [2]: Low water solubility limits; also recorded: much lower water solubility | Preparation: state of the injection preparation [2]: Compound 14h (R): white solid + 3% EtOH + 1% POE + 0.25% NaHCO3 + saline → suspension (pH = 8.0); 0.5 ml/mouse/inj, IP; 0.2 ml/mouse/inj, SC.

CNC(=O)C(C)Oc1ccc(Oc2cnc3ccc(Cl)cc3n2)cc1 (stereo not shown) [Compound 14b]
Day of Wt. Loss Nadir [3, 11]: 8 days | Drug Deaths (day of death) [3, 11]: 0/5 | Growth Delay [3, 11]: 7.0 days | Log Cell Kill [3, 11]: 0.8 | Mean Body Wt. Loss (g/mouse) [3, 11]: −2.0 g/mouse | Median Tumor Burden in mg on d18 (Range) [3, 11]: 671 mg | T/C % [3, 11]: 39% | Time in days to 1000 mg (range) [3, 11]: 21 days | Tumor Free on d 154 [3, 11]: 0/5 | day of full body weight recovery [3, 11]: 10 days | % Body Wt. Loss [3, 12]: 4% | Day of Wt. Loss Nadir [3, 12]: 5 days | Drug Deaths (day of death) [3, 12]: 0/5 | Growth Delay [3, 12]: 2.0 days | Log Cell Kill [3, 12]: 0.2 | Mean Body Wt. Loss (g/mouse) [3, 12]: −0.8 g/mouse | Median Tumor Burden in mg on d18 (Range) [3, 12]: 1266 mg | T/C % [3, 12]: 74% | Time in days to 1000 mg (range) [3, 12]: 15 days | Tumor Free on d 154 [3, 12]: 0/5 | % Body Wt. Loss ([3]; Cage 5, BID 3, total 108 mg/kg): 0% | Day of Wt. Loss Nadir ([3]; Cage 5, BID 3, total 108 mg/kg): 5 days | Drug Deaths (day of death) ([3]; Cage 5, BID 3, total 108 mg/kg): 0/5 | Growth Delay ([3]; Cage 5, BID 3, total 108 mg/kg): 2.7 days | Log Cell Kill ([3]; Cage 5, BID 3, total 108 mg/kg): 0.3 | Mean Body Wt. Loss (g/mouse) ([3]; Cage 5, BID 3, total 108 mg/kg): +0.4 g/mouse | Median Tumor Burden in mg on d18 (Range) ([3]; Cage 5, BID 3, total 108 mg/kg): 1312 mg | T/C % ([3]; Cage 5, BID 3, total 108 mg/kg): 77% | Time in days to 1000 mg (range) ([3]; Cage 5, BID 3, total 108 mg/kg): 15.7 days | Tumor Free on d 154 ([3]; Cage 5, BID 3, total 108 mg/kg): 0/5 | water solubility [2]: water insoluble

CC(Oc1ccc(Oc2cnc3ccc(Cl)cc3n2)cc1)C(=O)NCC(=O)O [Compound 14i (R), {2-{4-(7-Chloro-quinoxalin-2-yloxy)-phenoxy}propionylamino}acetic acid]
Activity Rating [1, 13]: + (0.7–1.2) | T/C [1, 13]: 10% | log cell kill [1, 13]: 1.1 | Activity Rating [1, 14]: + (0.7–1.2) | T/C [1, 14]: 37% | day of death [1, 14]: 4 days | deaths [1, 14]: one injection death | log kill [1, 14]: 0.7 | Activity Rating [1, 15]: ++ (1.3–1.9) | T/C [1, 15]: 10% and 8% | day of full weight recovery [1, 15]: ≤ 11 days | day of weight loss nadir [1, 15]: 7 days | log kill [1, 15]: 1.6 | Comments (Active/Inactive) [1, 16]: Active | Comments (activity rating) [1, 16]: (++) (1.3–1.9) | Drug Death [1, 16]: 0/5 | Log Cell Kill [1, 16]: 1.6 | Median Tumor Burden in mg on d17 [1, 16]: 151 mg | T-C [1, 16]: 11 days | T/C % [1, 16]: 8% | Time to 1000 mg [1, 16]: 26 days | Tumor Free on 148 [1, 16]: 0/5 | Comments (Active/Inactive) [1, 17]: Active | Comments (activity rating) [1, 17]: (+) (0.7–1.2) | Drug Death [1, 17]: 1/5 | Drug Death (day of death) [1, 17]: (d4) | Log Cell Kill [1, 17]: 0.7 | Median Tumor Burden in mg on d17 [1, 17]: 675 mg | T-C [1, 17]: 5 days | T/C % [1, 17]: 37% | Time to 1000 mg [1, 17]: 20 days | Tumor Free on 148 [1, 17]: 0/5 | Comments (Active/Inactive) [1, 18]: Active | Comments (activity rating) [1, 18]: (+) (0.7–1.2) | Drug Death [1, 18]: 0/5 | Log Cell Kill [1, 18]: 1.1 | Median Tumor Burden in mg on d17 [1, 18]: 189 mg | T-C [1, 18]: 7.5 days | T/C % [1, 18]: 10% | Time to 1000 mg [1, 18]: 22.5 days | Tumor Free on 148 [1, 18]: 0/5 | Day of Wt. Loss Nadir ([1]; mouse, in vivo): 7 days and 4 days | day of full weight recovery ([1]; mouse, in vivo, ip, 135 mg/kg): ≤ 9 days | day of weight loss nadir ([1]; mouse, in vivo, ip, 135 mg/kg): 7 days | toxicity observations ([1]; mouse, in vivo, ip, 135 mg/kg): prolonged pain response | water solubility [2]: good water solubility | Preparation: state of the injection preparation [2]: Compound 14i (R): white solid + 3% EtOH + 1% POE + 0.25% NaHCO3 + saline → solution (pH = 8.0); 0.5 ml/mouse/inj, IP; 0.2 ml/mouse/inj, IV.

CC(Oc1ccc(Oc2cnc3ccc(Cl)cc3n2)cc1)C(=O)NCCS(=O)(=O)[O-].[Na+] [Compound 14f (R)]
Comments (activity rating) (Human Melanoma LOX): (+) (0.7–1.2) | Drug Death (day of death) (Human Melanoma LOX): no drug deaths and 0/5 | Log Cell Kill (Human Melanoma LOX): 0.8 | Median Tumor Burden in mg on d 9 (range) (Human Melanoma LOX): 651 mg | T-C (Human Melanoma LOX): 3.0 days | T/C % (Human Melanoma LOX): 47% | Time to 1000 mg days (range) (Human Melanoma LOX): 11.0 days | Tumor Free on d 18 (Human Melanoma LOX): 0/5 | Day of Wt. Loss Nadir [4, 19]: 14 days | Drug Death (day of death) [4, 19]: 0/5 | Log Cell Kill [4, 19]: 4.2 | Mean Body Wt. Loss in g/mouse [4, 19]: −0.8 g/mouse | Median Tumor Burden in mg on day 7 (range) [4, 19]: 0 mg | Percent Body Weight Loss [4, 19]: −3.0% | T-C [4, 19]: 14 days | T/C % [4, 19]: 0% | Time to 1000 mg in days (range) [4, 19]: 20 days | Tumor Free on d28 [4, 19]: no cures and 0/5 | day of full body weight recovery [4, 19]: ≤ 16 days | Day of Wt. Loss Nadir [4, 20]: 5 days | Drug Death (day of death) [4, 20]: 0/5 | Log Cell Kill [4, 20]: 1.8 | Mean Body Wt. Loss in g/mouse [4, 20]: −0.8 g/mouse | Median Tumor Burden in mg on day 7 (range) [4, 20]: 260 mg | Percent Body Weight Loss [4, 20]: −2.9% | T-C [4, 20]: 6 days | T/C % [4, 20]: 14% | Time to 1000 mg in days (range) [4, 20]: 12 days | Tumor Free on d28 [4, 20]: 0/5
